This is an account of results in article PMC12490239, “Combining BET inhibition with SMAC mimetics restricts tumor growth and triggers immune surveillance in preclinical cancer models” (Cell Reports Medicine, 2025).

Molecules are shown by their SMILES.

Holding throughout (experiment): cells
Parameters in all cases: CellTiter-Glo 2.0 luminescence proliferation/viability assay, single agents, human tumour cell line panel
A general note: In ATP-based viability assays light output follows the ATP content of the culture.

For one test, the system named is GCIY. The following applies: Homo sapiens, GCIY, 96 h; single agent; read-out: IC50 SMACm. A digest of the protocol: (§1)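 Human tumour cell lines were seeded into assay plates and held at 37°C with 5% CO2 for twenty-four hours, then exposed in triplicate to rising concentrations of the SMAC mimetic, from 4.5 nM to 10 μM, with DMSO as control. After 96 h, viability was read as CellTiter-Glo2.0 luminescence to derive single-agent IC50 values.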

Another test has as its system NCI-H2087. The following applies: Homo sapiens, NCI-H2087, 96 h; single agent; read-out: IC50 SMACm. The method in brief: as §1
The next test relates to AGS. The note with it: Homo sapiens, AGS, 96 h; single agent; read-out: IC50 SMACm. A digest of the protocol: as §1

As for `CN[C@@H](C)C(=O)Nc1ccc(-c2c(-c3cccnc3OC)nc3cc(C)ccn23)c(C#Cc2ccc3c(C)nccc3c2)n1` [SMACm, BI 891065], the results for the IC50 in the test on GCIY, in the test on NCI-H2087 and with AGS were 4.01 µM, 5.05 µM and 4.06 µM, respectively.

Broadly, the IC50 is the point on the concentration scale where inhibition reaches its midpoint.
